One compound from patent US11951109B2, “EZH2 inhibitors for treating lymphoma” (Epizyme, Inc., priority 2015, dated 2024) can be followed below.

In general, half-life refers to the time needed for the level to fall by half in the phase considered. High values mean slow loss, low ones fast loss.

One data set concerns Non-Hodgkin's lymphoma. Nature of the data set: Phase 1 clinical study of EPZ-6438: tumor response. Type of data set: in vivo, human. The text has this:
(§1) The phase 1 trial enrolled patients with relapsed/refractory solid tumors and B cell lymphoma. The study employed a standard 3+3 dose escalation design with two planned dose expansion cohorts and clinical pharmacology sub-studies. The primary endpoint was determination of a recommended phase 2 dose or MTD with standard secondary endpoints. The results of the study are also presented in WO 2015195848 and figures therein, the content of which is hereby incorporated by reference in its entirety.
The patients enrolled included 19 patients with Non-Hodgkin's lymphoma (NHL) of which 13 patients have DLBCL. Cell-of origin testing was intended for all NHL patients; however, 3 DLBCL patients had insufficient tissue to permit determination of germinal center vs. non-germinal center status. EZH2 mutation testing was centrally performed for 14 NHL patients by the Cobas® test (Roche). One lymphoma patient whose tumor has been treated to date carries an EZH2 mutation. For the solid tumor patients, attention has been given to recruiting patients with INI1-deficient tumors due to the oncogenic role of EZH2 in these tumors.
NHL patients on study were heavily pre-treated with 85% having received three or more prior systemic therapies and nearly half receiving four or more prior regimens.

The next data set is described as follows: clinical. The settings on record: human, in vivo.
Excerpt: as §1
[…]. […] While a decrease in AUC between the first dose and day 15 was observed, there was no further reduction in systemic exposure beyond that time, as evidenced by pre-dose Ctrough levels in the right panel.

The subject of a further data set is H3K27 trimethylation. Nature of the data set: Phase 1 clinical study: tri-methyl H3K27 levels in skin biopsy by immunohistochemistry. Type of data set: in vivo, human. The settings on record: for reduction from baseline in PD H3K27 trimethylation in skin biopsy: wild type EZH2. The text has this:
Pre- and post-dose skin biopsies were collected to assess pharmacodynamics in a surrogate tissue through the measurement of tri-methyl H3K27 levels by immunohistochemistry.

The conditions of data set [1]: human, in vivo.
Excerpt: as §1
[…]. One patient discontinued drug for grade 4 neutropenia. Both of these patients were treated in the 800 mg expansion cohort. • Seven patients had dose interruptions. Of these, 6 were from a reversible toxicity and resumed study agent at prior dose without further issue.

A further data set deals with KARPAS 422 tumor. Put plainly: Single agent activity of EPZ-6438 in KARPAS 422 tumor (FIG. 2A). Type of data set: in vivo. The following applies: mutant EZH2 (Y646N).
A further data set concerns WSU-DLCL2 tumor. Nature of the data set: EPZ-6438 with CHOP chemotherapy in vivo, WSU-DLCL2 tumor (FIG. 3A).
The next data set has as its system SUDHL6 tumor. Put plainly: EPZ-6438 with CHOP chemotherapy in vivo, SUDHL6 tumor (FIG. 3B, 3C).
In a further data set the test system is OCI-LY19. Nature of the data set: Combination of EPZ-6438 and other therapeutic agents (4+3 model), OCI-LY19. The settings on record: OCI-LY19; FIG. 1B.
[2] abbreviates: patient with primary mediastinal B-cell lymphoma, wild type EZH2, 200 mg orally twice a day.

As to `CCN(c1cc(-c2ccc(CN3CCOCC3)cc2)cc(C(=O)NCc2c(C)cc(C)[nH]c2=O)c1C)C1CCOCC1` [EPZ-6438, tazemetostat], in the data set on Non-Hodgkin's lymphoma (DLBCL), the objective response is listed as 5 of 9. In the data set on Non-Hodgkin's lymphoma (DLBCL patient with EZH2 mutation, by week 16), the “reduction of abdominal mass” value is given as 52%. Besides, in the data set with Non-Hodgkin's lymphoma (evaluable NHL patients), the objective response result is “Nine of 15”. Moreover, in the data set on Non-Hodgkin's lymphoma (follicular lymphoma), the objective response is 3 of 5. Further, the response entry in the data set on Non-Hodgkin's lymphoma (one patient with marginal zone nodular lymphoma, approaching one year on therapy) was “partial response”. Moreover, in the data set with Non-Hodgkin's lymphoma (setting [2]), the FDG uptake entry is recorded as “reduction” and the “reduction in lesion size via computed tomography (CT)” value is given as 73%. Also, in the data set on Non-Hodgkin's lymphoma (patient with transformed DLBCL, wild type EZH2, 100 mg orally twice a day), the “reduction in lesion size via computed tomography (CT)” value worked out at 66%. In “clinical”, the “PK at steady state throughout the entire dosing range” value is listed as “dose-proportional linear PK”, the absorption result was “rapid absorption” and the half-life was in the range of 3 to 5 h. Besides, in the data set on H3K27 trimethylation (patient with primary mediastinal B-cell lymphoma, 200 mg orally twice a day), the “reduction from baseline in PD H3K27 trimethylation in skin biopsy” value is reported as 27%. For the same compound, the “reduction from baseline in PD H3K27 trimethylation in skin biopsy” value in the data set on H3K27 trimethylation (patient with transformed DLBCL, 100 mg orally twice a day) is recorded as 21%. Besides, in the data set with H3K27 trimethylation (pre- and post-dose skin biopsies), the “tri-methyl H3K27 levels across the full thickness of skin” value is reported as “dose-dependent reduction”. Also, in data set [1], the “Grade 3 or greater adverse events, fraction of patients” value is “a third”; the “Grade 3 or greater treatment-related adverse events” value was 5 patients; the tolerability result is on record as “well-tolerated”. The “tumor growth, single agent” value in the data set with KARPAS 422 tumor is given as “growth inhibition”. Moreover, in the data set on WSU-DLCL2 tumor, the “effect of combination with CHOP chemotherapy on mean tumor volume” value is listed as “synergy”. Moreover, the “effect of combination with CHOP chemotherapy on mean tumor volume and survival” value with SUDHL6 tumor is listed as “synergy”. Further, the “activity of EPZ-6438 in combination with prednisolone” value with OCI-LY19 is on record as “possesses activity”.
